Experimental data as given in patent US20200068887A1, “TREATMENT FOR REMOVING ECTOPARASITES FROM FISH” (priority 2016, published 2020).

Tests used:
Type in all cases: in vivo
Lepeophtheirus salmonis [1] = experiment: Relative efficacy study (optimisation of treatment concentration); conditions: for Parasite clearance: n=2, ±SEM
Method: 120 salmon fish (Salmo salar) were divided across five flow-through treatment tanks and acclimated for 24 hours prior to parasite challenge.
Egg strings removed from ovigerous female Lepeophtheirus salmonis were collected and cultured until infective copepodids were produced. The copepodids were then evenly distributed into five bottles containing sea water and stored at ˜10° C. overnight. In preparation for the challenge, water flows in the treatment tanks were stopped and light levels reduced. 650±20 copepodids (˜27 per host) were added to the static water and the tanks maintained in total darkness for 7 hours after which light levels were raised and the water flow resumed.
Fish were randomly divided into ten groups of ten fish and held in static ‘treatment buckets’ containing 30 L of water and high aeration as shown in Table 3.
Eight of the groups (3-10) were treated with the required concentrations of imidacloprid for 60 minutes: imidacloprid was dissolved in DMSO and added to ˜1L of tank water prior to addition to the treatment buckets. The remaining group and its replicate (1 & 2) were DMSO controls at 0.03%.
Experimental animals were monitored closely for adverse reactions and the status of the parasite infection. Where possible the time at which all parasites were thought to have detached was recorded. As treatments were performed in static systems, temperature and dissolved oxygen were regularly monitored throughout the procedure and aeration adjusted as required.
After the treatment period, the test animals were removed from the treatment solution and humanly euthanised. Each fish was weighed, measured, and its individual parasite burden assessed. The number of parasites in the treatment solution was also counted and qualitatively assessed for: sex and maturity, apparent signs of neonicotinoid poisoning, and/or potential recovery.
Logistic regression was used to compare parasite clearance after treatment with each of the concentration. Logistic regression analyses were performed using the glm function in R v.2.13.0 and assumed a binomial or quasi-binomial error distribution (determined through the comparison of the null deviance with the degrees of freedom).

salmon louse = experiment: Revival rates of sea lice after bath treatment
Method: Numbers of dissociated lice in tank water or attached to the tank walls were recorded. Lice in the tank water were collected and assessed for ability to attach by suction to a smooth plastic surface immediately after treatment and again after 30-60 minutes (to assess possible revival). Live and viable lice were also collected from the mock-treated control groups for reference and held in revival chambers for the same period of time to assess the system.
Remaining lice in the treatment bath were strained through a plankton mesh (2 mm pore size) that was suspended in a water bath with clean seawater. The lice in this collector were transferred to a plastic beaker (1 litre) and then again into a revival tube (5 cm diameter; 10 cm length). Lice that are able to attach to the walls of the treatment tanks or beaker within 3 minutes of completion of each test were scored as viable.

Lepeophtheirus salmonis [2] = experiment: Sea lice recovery in clean seawater after exposure; conditions: any concentration (10-25 mg/l), post-exposure period up to 6 hours
Method: Imidacloprid exposed parasites from both the relative efficacy and rate determination studies (both those removed manually from their host post-treatment and those that detached during treatment) were immersed into clean seawater and observed for signs of recovery.
At the time of the first observation, exposed individuals were determined to be either dead or still active. Of those still active, muscular excitation was uncoordinated, uncontrolled and limited.

[3] = tested on: pre-adult and adult sea lice; experiment: Timescale of effect of imidacloprid against sea lice on killed salmon hosts; conditions: for lice that left the host: around 12° C.
Method: To determine the timescale of the effect of imidacloprid, salmon infected with pre-adult and adult sea lice were removed from a stock tank and killed using a sharp blow to the head.
For fish exposed to 0 ppm imidacloprid (negative controls), observations were made for 60 minutes. […] Three fish per treatment group were tested.
Observations on the time at which lice left the host, and the sex and stage of the sea louse was noted. Any lice that left the host were transferred to clean sea water immediately. Furthermore, any lice remaining on the host at the end of the exposure period were removed from the host and transferred to clean sea water.
Lice were observed both shortly after and approximately 2 hours after the end of the exposure period.
The ratio of male to female sea lice was around 50:50. The water temperature was around 12° C.

## O=[N+]([O-])NC1=NCCN1Cc1ccc(Cl)nc1 [imidacloprid]
Lepeophtheirus salmonis [1]; 10 mg/l, 60 min
  parasites remaining attached to their hosts at sampling: 20%
  Parasite clearance: 80±11%
Lepeophtheirus salmonis [1]; 15 mg/l, 60 min
  parasites remaining attached to their hosts at sampling: 8%
  Parasite clearance: 92±4%
Lepeophtheirus salmonis [1]; 20 mg/l, 60 min
  parasites remaining attached to their hosts at sampling: 8%
  Parasite clearance: 92±7%
Lepeophtheirus salmonis [1]; 25 mg/l, 60 min
  parasites remaining attached to their hosts at sampling: 3%
  Parasite clearance: 97±3%
Lepeophtheirus salmonis [1]; all four dosages (10, 15, 20, 25 mg/l), 60 minute treatment
  parasite infection removed: 80-100%
Lepeophtheirus salmonis [1]; range 10-25 mg/l, 60 min, no significant increase in efficacy above
  optimum concentration within the range tested: 15 mg/L
Salmon louse; 20 ppm 30 min, n lice 9
  % active at 30-60 min. post-treatment, Attached lice collected from fish: 11.1%
Salmon louse; 20 ppm 30 min, n lice 23
  % active at 30-60 min. post-treatment, Detached lice collected from tank water: 4.3%
Salmon louse; 20 ppm 60 min, n lice 20
  % active at 30-60 min. post-treatment, Detached lice collected from tank water: 0.0%
Salmon louse; 50 ppm 30 min, n lice 31
  % active at 30-60 min. post-treatment, Detached lice collected from tank water: 0.0%
Salmon louse; 100 ppm 3 min, n lice 3
  % active at 30-60 min. post-treatment, Detached lice collected from tank water: 33.3%
Salmon louse; 100 ppm 15 min, n lice 28
  % active at 30-60 min. post-treatment, Detached lice collected from tank water: 0.0%
Salmon louse; 200 ppm 5 min, n lice 13
  % active at 30-60 min. post-treatment, Attached lice collected from fish: 0.0%
  % active at 30-60 min. post-treatment, Detached lice collected from tank water: 0.0%
Salmon louse; 200 ppm 15 min, n lice 43
  % active at 30-60 min. post-treatment, Detached lice collected from tank water: 0.0%
Lepeophtheirus salmonis [2]
  functional recovery of exposed parasites in clean seawater: no clear signs of functional recovery
[3]; 20 mg/L, 30 minutes post-exposure, of 49 lice
  lice considered dead: two
[3]; 20 ppm, lice exposed for 30 minutes
  signs of recovery in clean sea water: No lice exposed for 30 minutes showed signs of recovery
[3]; 20 ppm, out of 49 lice
  lice deemed alive and responsive: Twelve
[3]; 50 ppm, 2 hours p.e., of 21 lice
  lice considered dead: 14 lice
[3]; 50 ppm, at 30 minutes, of 21 lice
  lice considered dead: four
[3]; 100 ppm, 2 hours p.e.
  lice considered dead: 17/28
[3]; 100 ppm, end of the exposure period, of 28 lice
  lice considered dead: four
[3]; 200 ppm, 2 hours post-exposure, of 26 lice
  lice considered dead: Six
[3]; 200 ppm, end of the exposure period, of 26 lice
  lice considered dead: four
[3]; 500 ppm, 30 minutes p.e., out of 20 lice
  lice considered dead: Six
[3]; 500 ppm, 2 hours p.e.
  lice considered dead: 15/20
[3]; 500 ppm, within the first 9 minutes
  lice that left the host: around 70%
[3]; between 20 and 200 ppm, within the first 15 minutes
  lice that left the host: around 50%
